# Assay results as given in patent US20110039834A1, “NOVEL PHARMACEUTICAL COMPOSITIONS FOR OPTIMIZING SUBSTITUTION TREATMENTS AND EXTENDING THE PHARMACOPOEIA TO GLOBAL TREATMENT OF ADDICTIONS” (TRIMARAN LIMITED, priority 2006, published 2011).
# How the values were obtained:
# male mice of OF1 strain [1] = experiment: Behavioral sensitization to morphine (locomotor activity on D15 after morphine injection); type: in vivo
# Procedure: The locomotor activity is influenced by a wide diversity of factors.
# The experimental protocol used may be described in the following manner:
# Dose of amisulpride (AMS): 0.5 mg/kg Dose of buprenorphine (Bup): 0.1 mg/kg
# The animals received from D1 to D7 either morphine or physiological saline, from Day D8 to D14 either physiological saline, or buprenorphine, amisulpride, buprenorphine and amisulpride according to the scheme:
# male mice of OF1 strain [2] = experiment: Measurement of locomotor activity: determination of the doses of amisulpride; type: in vivo
# Procedure: The animals used in this study are male mice of OF1 strain weighing about 20 g at the start of the experiments (Charles River, France). They live in an environment whose daily lighting cycle (07:30h; 17:30h) is constant throughout the year, and the temperature is maintained at about 22° C. The mice have free access to water and food, and the experiments are performed in accordance with the international rules on ethics in animal experimentation.
# The mice are placed individually in a sound-insulated plastic cage ([…]) and are exposed to a light intensity of 5 lux. The animals' movements are captured by photoelectric cells for 60 minutes and recorded by computer. The experiment starts immediately after injection of the product. In this study, the term “locomotor activity” takes into account only the horizontal movements of the animals.
# A one-factor (treatment) analysis of variance (ANOVA) is used for all the behavioral tests performed, followed by a Student-Newman-Keuls test if p<0.05 in the ANOVA. In all the cases, the significance is accepted once p<0.05.
# A molecule endowed with dopaminergic antagonist activity reduces locomotor activity. It is this property that is exploited in order to determine the dose after which amisulpride has dopaminergic antagonist activity in mice (i.e. an effect on the D2 and D3 post-synaptic receptors, and not on the D2 and D3 auto-receptors). […]
SMILES,"behavioral sensitization on D15 relative to animals chronically treated with saline (male mice of OF1 strain [1]; mice chronically treated D1 to D7, locomotor activity on D15 after morphine 10 mg/kg)",effect on locomotor activity at low dose (male mice of OF1 strain [2]; 0.5 mg/kg),"dose at and above which the decrease in locomotor activity is significant (male mice of OF1 strain [2]; doses tested 0.5, 2, 10, 20 and 50 mg/kg, horizontal movements over 60 minutes) [mg/kg]","reduction of the behavioral sensitization to morphine (male mice of OF1 strain [1]; morphine D1 to D7, treatment between D8 and D14 (amisulpride 0.5 mg/kg, buprenorphine 0.1 mg/kg), morphine 10 mg/kg on D15)"
CN1CC[C@]23c4c5ccc(O)c4O[C@H]2[C@@H](O)C=C[C@H]3[C@H]1C5 [morphine],show behavioral sensitization,–,–,–
CCN1CCCC1CNC(=O)c1cc(S(=O)(=O)CC)c(N)cc1OC (stereo not shown) [amisulpride],–,locomotor hyperactivity is observed,≥ 10,does not make it possible to reduce this behavioral sensitization
